Patent US6080746A, “Methods and compositions for the prophylaxis and treatment of cytomegalovirus infections” (priority 1991, dated 2000)
≈ marks a conversion by molar mass, not a printed value. Like-named read-outs stand apart in the source and are kept apart here.

How the values were obtained:
cytomegalovirus = details: cited from earlier work; for treatment of cytomegalovirus retinitis: Rosecan et al. 1986 / reported
human CMV = experiment: Plaque reduction assay against human CMV (ED50); format: cell-based
[1] = system: human diploid embryonic lung cells (MRC5); experiment: Drug cytotoxicity (gross morphology) in MRC5 cells (Table 1)
Description: Also evaluated under the same conditions were prior art drugs Ara-A and ganciclovir (DHPG). In each case, drug treatment began 0 hr. postinfection.

[2] = system: human cytomegalovirus (strain AD 169); experiment: CMV yield in MRC5 cells (Table 1); format: cell-based
Description: (§1) In each case, drug treatment began 0 hr. postinfection.

[3] = system: human cytomegalovirus (strain AD 169); experiment: Inhibition of human cytomegalovirus in MRC5 cells by plaque reduction assay (reduction of CPE, MIC50; Table 1); format: cell-based; details: for inhibition at 0.032 µg/mL: 0.032 μg/ml; for inhibition at 0.1 µg/mL: 0.1 μg/ml
Description: as §1

MRC5 cells = experiment: Drug cytotoxicity (gross morphology) in MRC5 cell monolayer cultures (Tables 4 and 5); format: cell-based, human
Description: (§2) The effectiveness of racemic 2'-CdG and of D-2'-CdG on CMV yields in MRC5 cell monolayer cultures was determined by a plaque assay with the results set forth in Tables 4 and 5:
(§3) ^a Drug treatment began immediately following the virus adsorption
(§4) ^a Drug treatment began immediately following the 1 1/2 hour

CMV [4] = experiment: CMV yields in MRC5 cell monolayer cultures by plaque assay (Tables 4 and 5); format: cell-based; details: virus control 5.5
Description: as §2, §3, §4

CMV [5] = experiment: Reduction of CPE in CMV-infected MRC5 cell monolayer cultures (Tables 4 and 5); format: cell-based; details: Human betaherpesvirus 5, MRC5, read-out: Reduction (%) of CPE by CDG at Time of Harvest
Description: as §2, §3, §4

CMV [6] = experiment: MIC50 against CMV in MRC5 cells; format: cell-based; details: Human betaherpesvirus 5
HCMV [7] = experiment: Virus yield-reduction assay, combination with DHPG on HCMV replication in MRC5 cells (Table 2); format: cell-based, human CMV; details: DHPG 0
Description: Effect of Combination Treatment^a With (±)-2'-CDG and
DHPG on HCMV Replication in MRC5 Cells
(§5) (Virus Yield-Reduction Assay)

HCMV [8] = experiment: Virus yield-reduction assay, combination with papaverine on HCMV replication in MRC5 cells (Table 3); format: cell-based, human CMV
Description: The following results were obtained in testing mixtures of racemic 2'-CdG and papaverine under the same conditions:
Effect of Combination Treatment^a With Papaverine and
(±)-2'-CDG and on HCMV Replication in MRC5 Cells
as §5, §3

[9] = 0.1 μg/ml, virus control 5.5 (DHPG 5.3)
[10] = 0.32 μg/ml, virus control 5.5 (DHPG 5.3)
[11] = 1.0 μg/ml, virus control 5.5 (DHPG 5.3)
[12] = 3.2 μg/ml, virus control 5.5 (DHPG 5.3)
[13] = 10 μg/ml, virus control 5.5 (DHPG 5.3)
[14] = Human betaherpesvirus 5, MRC5, treatment 0 hr postinfection, read-out: Reduction (%) of CPE at Time of Harvest
[15] = Human betaherpesvirus 5, 0.32 μg/ml, MRC5, treatment 0 hr postinfection, read-out: Reduction (%) of CPE at Time of Harvest
[16] = Human betaherpesvirus 5, 1.0 μg/ml, MRC5, treatment 0 hr postinfection, read-out: Reduction (%) of CPE at Time of Harvest
[17] = Human betaherpesvirus 5, 3.2 μg/ml, MRC5, treatment 0 hr postinfection, read-out: Reduction (%) of CPE at Time of Harvest
[18] = Human betaherpesvirus 5, 10 μg/ml, MRC5, treatment 0 hr postinfection, read-out: Reduction (%) of CPE at Time of Harvest
[19] = Human betaherpesvirus 5, MRC5, 0 h, read-out: Reduction (%) of CPE at Time of Harvest

Compound: Nc1nc2c(ncn2COCCO)c(=O)[nH]1 [acyclovir]
- activity against CMV retinitis (cytomegalovirus; CMV retinitis, reported): ineffective
- treatment of cytomegalovirus retinitis (cytomegalovirus): unsuccessful
- activity against established systemic CMV infections (cytomegalovirus; established systemic CMV infections, reported): ineffective

Compound: CCCCC(=O)OC[C@H]1O[C@@H](n2cnc3c(=O)[nH]c(N)nc32)C[C@@H]1O [D-2'-deoxyguanosine-5'-0-valerate]
- ED50 (human CMV): 0.09 µg/mL (≈ 0.256 µM)

Compound: Nc1nc(N)c2ncn([C@@H]3C[C@H](CO)[C@@H](O)C3)c2n1 (relative stereo) [±C-2,6'-DAPdR]
- Drug Cytotoxicity (gross morphology) ([1]; 0.032 μg/ml): 0
- Drug Cytotoxicity (gross morphology) ([1]; 0.1 μg/ml): 0
- Drug Cytotoxicity (gross morphology) ([1]; 0.32 μg/ml): 0
- Drug Cytotoxicity (gross morphology) ([1]; 1.0 μg/ml): 0
- Drug Cytotoxicity (gross morphology) ([1]; 3.2 μg/ml): v. sl. toxic
- Drug Cytotoxicity (gross morphology) ([1]; 10 μg/ml): sl. toxic
- Drug Cytotoxicity (gross morphology) ([1]; 32 μg/ml): toxic
- CMV Yield ([2]; 0.032 μg/ml, virus control 5.5): 5.3 log10 CCID50 /ml
- CMV Yield [2, 9]: 5.0 log10 CCID50 /ml
- CMV Yield [2, 10]: 4.0 log10 CCID50 /ml
- CMV Yield [2, 11]: 3.4 log10 CCID50 /ml
- CMV Yield [2, 12]: 0 log10 CCID50 /ml
- CMV Yield [2, 13]: 0 log10 CCID50 /ml
- inhibition at 0.032 µg/mL [3, 14]: 0%
- inhibition at 0.1 µg/mL [3, 14]: 0%
- inhibition at 0.32 µg/mL [3, 15]: 25%
- inhibition at 1 µg/mL [3, 16]: 95%
- inhibition at 3.2 µg/mL [3, 17]: 100%
- inhibition at 10 µg/mL [3, 18]: 100%

Compound: Nc1ncnc2c1ncn2[C@@H]1O[C@H](CO)[C@@H](O)[C@@H]1O [Ara-A, reference compound]
- Drug Cytotoxicity (gross morphology) ([1]; 0.32 μg/ml): 0
- Drug Cytotoxicity (gross morphology) ([1]; 1.0 μg/ml): 0
- Drug Cytotoxicity (gross morphology) ([1]; 3.2 μg/ml): 0
- Drug Cytotoxicity (gross morphology) ([1]; 10 μg/ml): 0
- treatment of cytomegalovirus retinitis (cytomegalovirus): unsuccessful
- CMV Yield [2, 10]: 5.2 log10 CCID50 /ml
- CMV Yield [2, 11]: 4.9 log10 CCID50 /ml
- CMV Yield [2, 12]: 4.7 log10 CCID50 /ml
- CMV Yield [2, 13]: 3.4 log10 CCID50 /ml
- CMV Yield ([2]; 32 μg/ml, virus control 5.5 (DHPG 5.3)): 0.6 log10 CCID50 /ml
- CMV Yield ([2]; 100 μg/ml, virus control 5.5 (DHPG 5.3)): 0 log10 CCID50 /ml
- inhibition at 0.32 µg/mL [3, 19]: 0%
- inhibition at 1 µg/mL [3, 19]: 0%
- inhibition at 3.2 µg/mL [3, 19]: 5%
- inhibition at 10 µg/mL [3, 19]: 90%
- inhibition at 32 µg/mL [3, 19]: > 95%
- inhibition at 100 µg/mL [3, 19]: 100%

Compound: CC(C)C(=O)OC[C@H]1O[C@@H](n2cnc3c(=O)[nH]c(N)nc32)C[C@@H]1OC(=O)C(C)C (racemic) [racemic 2'-deoxyguanosine-3',5'-0-diisobutyrate, 2'-deoxyguanosine-3',5'-0-diisobutyrate]
- ED50 (human CMV): 3.9 µg/mL (≈ 9.57 µM)

Compound: Nc1nc2c(ncn2[C@@H]2C[C@H](CO)[C@@H](O)C2)c(=O)[nH]1 (relative stereo) [±2'-CdG]
- Drug Cytotoxicity (gross morphology) (MRC5 cells; Table 4, 0.032 μg/mL): 0
- Drug Cytotoxicity (gross morphology) (MRC5 cells; Table 4, 0.1 μg/mL): 0
- Drug Cytotoxicity (gross morphology) (MRC5 cells; Table 4, 0.32 μg/mL): 0
- Drug Cytotoxicity (gross morphology) (MRC5 cells; Table 4, 1.0 μg/mL): 0
- Drug Cytotoxicity (gross morphology) (MRC5 cells; Table 4, 3.2 μg/mL): v. sl.
- Drug Cytotoxicity (gross morphology) (MRC5 cells; Table 4, 10 μg/mL): sl. toxicity
- Drug Cytotoxicity (gross morphology) (MRC5 cells; Table 4, 32 μg/mL): toxic
- CMV Yield (CMV [4]; Table 4, 0.032 μg/mL): 5.4 log10 CCID50 /mL
- CMV Yield (CMV [4]; Table 4, 0.1 μg/mL): 5.0 log10 CCID50 /mL
- CMV Yield (CMV [4]; Table 4, 0.32 μg/mL): 4.5 log10 CCID50 /mL
- CMV Yield (CMV [4]; Table 4, 1.0 μg/mL): 3.6 log10 CCID50 /mL
- CMV Yield (CMV [4]; Table 4, 3.2 μg/mL): 1.0 log10 CCID50 /mL
- CMV Yield (CMV [4]; Table 4, 10 μg/mL): 0 log10 CCID50 /mL
- inhibition at 0.032 µg/mL (CMV [5]; Table 4, 0.032 μg/mL): 0%
- inhibition at 0.1 µg/mL (CMV [5]; Table 4, 0.1 μg/mL): 0%
- inhibition at 0.32 µg/mL (CMV [5]; Table 4, 0.32 μg/mL): 20%
- inhibition at 1 µg/mL (CMV [5]; Table 4, 1.0 μg/mL): 95%
- inhibition at 3.2 µg/mL (CMV [5]; Table 4, 3.2 μg/mL): 100%
- inhibition at 10 µg/mL (CMV [5]; Table 4, 10 μg/mL): 100%
- Drug Cytotoxicity (gross morphology) ([1]; 0.032 μg/ml): 0
- Drug Cytotoxicity (gross morphology) ([1]; 0.1 μg/ml): 0
- Drug Cytotoxicity (gross morphology) ([1]; 0.32 μg/ml): 0
- Drug Cytotoxicity (gross morphology) ([1]; 1.0 μg/ml): 0
- Drug Cytotoxicity (gross morphology) ([1]; 3.2 μg/ml): v. sl. toxic
- Drug Cytotoxicity (gross morphology) ([1]; 10 μg/ml): sl. toxic
- Drug Cytotoxicity (gross morphology) ([1]; 32 μg/ml): toxic
- IC50 (CMV [6]): 0.069 µg/mL (≈ 0.26 µM)
- Reduction in CMV Yield (HCMV [7]; (±)-2'-CDG 0.1 (mM as printed)): 0.1 Log10 PFU/ML
- Reduction in CMV Yield (HCMV [7]; (±)-2'-CDG 0.32 (mM as printed)): 0.5 Log10 PFU/ML
- Reduction in CMV Yield (HCMV [7]; (±)-2'-CDG 1.0 (mM as printed)): 0.6 Log10 PFU/ML
- Reduction in CMV Yield (HCMV [7]; (±)-2'-CDG 3.2 (mM as printed)): 1.0 Log10 PFU/ML
- CMV Yield ([2]; 0.032 μg/ml, virus control 5.5): 5.4 log10 CCID50 /ml
- CMV Yield [2, 9]: 5.0 log10 CCID50 /ml
- CMV Yield [2, 10]: 4.5 log10 CCID50 /ml
- CMV Yield [2, 11]: 3.6 log10 CCID50 /ml
- CMV Yield [2, 12]: 1.0 log10 CCID50 /ml
- CMV Yield [2, 13]: 0 log10 CCID50 /ml
- Reduction in CMV Yield (HCMV [8]; (±)-2'-CDG 0.32 (mM as printed), papaverine (DHPG) 0): 0.7 Log10 PFU/ML
- Reduction in CMV Yield (HCMV [8]; (±)-2'-CDG 1.0 (mM as printed), papaverine (DHPG) 0): 1.0 Log10 PFU/ML
- Reduction in CMV Yield (HCMV [8]; (±)-2'-CDG 3.2 (mM as printed), papaverine (DHPG) 0): 1.7 Log10 PFU/ML
- Reduction in CMV Yield (HCMV [8]; (±)-2'-CDG 10.0 (mM as printed), papaverine (DHPG) 0): 2.7 Log10 PFU/ML
- inhibition at 0.032 µg/mL [3, 14]: 0%
- inhibition at 0.1 µg/mL [3, 14]: 0%
- inhibition at 0.32 µg/mL [3, 15]: 20%
- inhibition at 1 µg/mL [3, 16]: 95%
- inhibition at 3.2 µg/mL [3, 17]: 100%
- inhibition at 10 µg/mL [3, 18]: 100%

Compound: Nc1nc(N)c2ncn([C@@H]3C[C@H](CO)[C@@H](O)[C@H]3O)c2n1 (relative stereo) [DAPR]
- IC50 ([3]; Human betaherpesvirus 5, MRC5, tested under the same conditions as Table 1): 8.7 µg/mL (≈ 31 µM)
- therapeutic index ([3]; tested under the same conditions as Table 1): 40

Compound: alpha-interferon
- treatment of cytomegalovirus retinitis (cytomegalovirus): unsuccessful

Compound: COc1ccc(Cc2nccc3cc(OC)c(OC)cc23)cc1OC [Papaverine, reference compound]
- Reduction in CMV Yield (HCMV [8]; (±)-2'-CDG 0, papaverine (DHPG) 1.0 μM): 0 Log10 PFU/ML
- Reduction in CMV Yield (HCMV [8]; (±)-2'-CDG 0, papaverine (DHPG) 3.2 μM): 0.2 Log10 PFU/ML
- Reduction in CMV Yield (HCMV [8]; (±)-2'-CDG 0, papaverine (DHPG) 10.0 μM): 0.6 Log10 PFU/ML
- Reduction in CMV Yield (HCMV [8]; (±)-2'-CDG 0, papaverine (DHPG) 32.0 μM): 1.4 Log10 PFU/ML
